Reference: patent publication US20260306514A1, “ORAL PHARMACEUTICAL FORMULATIONS CONTAINING 4-((2-HYDROXY-3-METHOXYBENZYL)AMINO) BENZENESULFONAMIDE DERIVATIVES” (Cadrenal Therapeutics, Inc., priority 2022, published 2026)
Converted amounts (≈) assume the structure as drawn. Read-outs that look alike come from different tables or passages of the source.

Key:
[1] = Solubility of Compound 1 in organic solvents relevant to spray drying (Table 3); format: physicochemical; details: for solubility: organic solvent or mixture, read-out: Solubility Concentration
Protocol: THF was the most suitable solvent, and could be combined with other solvents such as acetone, ethanol and water to enable dissolution of the drug, polymer and additives in the formulation. Furthermore, given the anticipated dose of the product, maximizing the drug loading in the amorphous dispersion was essential.
Solubility in organic solvents relevant to spray draying were conducted ([…]), showing that THF with EtOH in water was preferred (85/10/5).

Aqueous solubility = format: physicochemical; details: for solubility in water: in words
[2] = Rat PK of Compound 1, IV and oral suspension (Table 1); set-up: species or system rats; details: in vivo; for bioavailability: po, rats
Source text: (§1) The intravenous formulation uses cyclodextrin (CD) to increase solubility. However, a drug loading of <10% is not suitable for oral formulation. The inventors explored a new approach to oral formulation without guidance from the art including lipid solubility screening in various non-aqueous vehicles, self micro-emulsifying systems with oils, surfactants, and co-surfactants, amorphous solid dispersions via hot melt and spray drying, micronization, and in silico screen of supercritical fluid nanoparticle engineering. […] The pharmaceutical acceptable carrier can be a polymer.

12-LOX = details: in words; cited from earlier work
[3] = Oral bioavailability of Compound 1 suspension in mice; details: mouse, in vivo, suspension in 0.5% methylcellulose
Source text: While this vehicle is sufficient for short term efficacy studies, the inventors needed a more robust and clinically relevant formulation for the longer dosing regimens required for mouse efficacy models.

[4] = Rat PK of Compound 1, IV and oral solution (Table 2); format: in vivo, rats
Source text: as §1, with “However, a drug loading of <10% is not suitable for oral formulation.” left out

Compound: COc1cccc(CNc2ccc(S(=O)(=O)Nc3nc4ccccc4s3)cc2)c1O [Compound 1, N-(benzo[d]thiazol-2-yl)-4-((2-hydroxy-3-methoxybenzyl)amino)benzenesulfonamide]
- Soluble ([1]; 50:45:5 Tetrahydrofuran:Acetone:Water): Yes
- solubility ([1]; 50:45:5 tetrahydrofuran:acetone:water): 10000 µg/mL (≈ 22.6 mM)
- Soluble ([1]; 50:50 Acetone:Methanol): No
- Soluble ([1]; 50:50 Methylene Chloride:Methanol): No
- solubility ([1]; 50:50 acetone:methanol): < 2500 µg/mL
- solubility ([1]; 50:50 methylene chloride:methanol): < 2500 µg/mL
- Soluble ([1]; 85:10:5 Tetrahydrofuran:Ethanol:Water): Yes
- solubility ([1]; 85:10:5 tetrahydrofuran:ethanol:water): 10000 µg/mL (≈ 22.6 mM)
- Soluble ([1]; 95:5 Tetrahydrofuran:Water): Yes
- solubility ([1]; 95:5 tetrahydrofuran:water): 10000 µg/mL (≈ 22.6 mM)
- solubilization by solvents utilized in the prior art ([1]; majority of solvents, in words): did not solubilize Compound 1 to an adequate level
- solubility in water (Aqueous solubility): poor solubility in water
- solubility enhancement (Aqueous solubility; phosphate buffer or simulated intestinal fluid): greatly enhanced
- AUC(0-inf) ([2]; IV, 3 mg/kg): 43600 ng·h/mL
- AUC(0-t) ([2]; IV, 3 mg/kg): 43600 ng·h/mL
- Cmax ([2]; IV, 3 mg/kg): 49600 ng/mL
- Tmax ([2]; IV, 3 mg/kg): 0.083 h
- half-life ([2]; IV, 3 mg/kg): 2.58 h
- AUC(0-inf) ([2]; IV, 10 mg/kg): 100000 ng·h/mL
- AUC(0-t) ([2]; IV, 10 mg/kg): 100000 ng·h/mL
- Cmax ([2]; IV, 10 mg/kg): 91200 ng/mL
- Tmax ([2]; IV, 10 mg/kg): 0.083 h
- half-life ([2]; IV, 10 mg/kg): 2.98 h
- AUC(0-inf) ([2]; IV, 30 mg/kg): 214000 ng·h/mL
- AUC(0-t) ([2]; IV, 30 mg/kg): 213000 ng·h/mL
- Cmax ([2]; IV, 30 mg/kg): 180000 ng/mL
- Tmax ([2]; IV, 30 mg/kg): 0.083 h
- half-life ([2]; IV, 30 mg/kg): 2.56 h
- AUC(0-inf) ([2]; oral suspension, 3 mg/kg): 237 ng·h/mL
- AUC(0-t) ([2]; oral suspension, 3 mg/kg): 203 ng·h/mL
- Cmax ([2]; oral suspension, 3 mg/kg): 30 ng/mL
- Tmax ([2]; oral suspension, 3 mg/kg): 4 h
- half-life ([2]; oral suspension, 3 mg/kg): 1.82 h
- AUC(0-inf) ([2]; oral suspension, 10 mg/kg): 478 ng·h/mL
- AUC(0-t) ([2]; oral suspension, 10 mg/kg): 399 ng·h/mL
- Cmax ([2]; oral suspension, 10 mg/kg): 71.3 ng/mL
- Tmax ([2]; oral suspension, 10 mg/kg): 2.67 h
- half-life ([2]; oral suspension, 10 mg/kg): 3.41 h
- AUC(0-inf) ([2]; oral suspension, 30 mg/kg): 768 ng·h/mL
- AUC(0-t) ([2]; oral suspension, 30 mg/kg): 737 ng·h/mL
- Cmax ([2]; oral suspension, 30 mg/kg): 142 ng/mL
- Tmax ([2]; oral suspension, 30 mg/kg): 2.67 h
- half-life ([2]; oral suspension, 30 mg/kg): 2.46 h
- bioavailability ([2]; suspension dosing, read-out: Bioavailability): < 0.5%
- bioavailability ([2]; suspension in 0.5% methylcellulose, read-out: oral bioavailability): < 5%
- 12-LOX inhibitory potency (12-LOX): highly potent
- bioavailability [3]: < 5%
- C0 or Cmax ([4]; IV, 3 mg/Kg, C0 extrapolated to T = 0 h): 63725 ng/mL
- C0 or Cmax ([4]; PO solution, 30 mg/Kg): 6610 ng/mL
- AUC(0-t) ([4]; in vivo, IV, 3 mg/Kg): 50700 ng·h/mL
- half-life ([4]; in vivo, IV, 3 mg/Kg): 2.59 h
- clearance ([4]; in vivo, IV, 3 mg/Kg, read-out: Cl_obs (observed clearance)): 0.986 mL/min/kg
- Vd ([4]; in vivo, IV, 3 mg/Kg, read-out: Vss_obs): 0.101 L/kg
- AUC(0-t) ([4]; in vivo, PO solution, 30 mg/Kg): 15200 ng·h/mL
- half-life ([4]; in vivo, PO solution, 30 mg/Kg): 2.69 h
- bioavailability ([4]; in vivo, po, 30 mg/kg, PO solution, 30 mg/Kg, read-out: F (bioavailability, fraction absorbed)): 3%

Compound: COc1cccc(CNc2ccc(S(=O)(=O)Nc3nc4ccccc4o3)cc2)c1O [Compound 2, N-(benzo[d]oxazol-2-yl)-4-((2-hydroxy-3-methoxybenzyl)amino)benzenesulfonamide]
- solubility in water (Aqueous solubility): poor solubility in water
- 12-LOX inhibitor selectivity (12-LOX): selective
- 12-LOX inhibitory potency (12-LOX): highly potent

Compound: COc1cccc(CNc2ccc(S(=O)(=O)Nc3cccc(C(C)C)c3)cc2)c1O [Compound 3, 4-((2-hydroxy-3-methoxybenzyl)amino)-N-(3-isopropylphenyl)benzenesulfonamide]
- solubility in water (Aqueous solubility): poor solubility in water
- 12-LOX inhibitor selectivity (12-LOX): selective
- 12-LOX inhibitory potency (12-LOX): highly potent
